Reference: patent US10583109B2, “Use of silver(I) complexes as anticancer agents” (University of Johannesburg, priority 2012, dated 2020)

Assays:
[1] = system: SNO-oesophageal cancer cells; experiment: Morphological features of SNO-oesophageal cancer cells by inverse light microscopy; format: cell-based; details: 24 hours of treatment
Experimental: Morphological studies were done by means of an Axiovert 25 inverted microscope (Carl Zeiss, Göttingen, Germany) with Axio Vision 3.1 software (Carl Zeiss, Göttingen, Germany) using an magnification of 100×.
After 24 hours of treatment with complexes (1)-(5) including their ligands the cells were examined under said Axiovert 25 inverted light microscope. This was done to determine how the complexes of the present invention influence morphology which was compared to 100 μM Cisplatin (apoptotic control) and 15% H2O2 (necrotic control).
Light microscope images indicating the morphology of the differentially treated SNO-oesophageal cancer cells is shown in FIG. 8. An untreated control (a) including 100 μM Cisplatin (b), an apoptotic control and 15% H2O2 (c), and a necrotic control was included. Cells were treated with 10 μM silver(I) thiocyanate phosphine complexes (1)-(5) as well as their separate ligands (Ligand-1 to Ligand-5, respectively) (FIGS. 8d to 8m). Black arrows represent signs of apoptosis, while the white arrows represent signs of necrosis.
An Axiovert 25 inverted microscope was used to examine if these complexes affect the morphological features of the malignant cells in any other way. This was done at a magnification of 100× with the use of Axio Version 3.1 software (Carl Zeiss, Gottingen, Germany).
Morphological studies where done after 24 hours of treatment to determine how these compounds influence/change specific features of the malignant SNO-oesophageal cancer cells, compared to the untreated (UC) and 1% DMSO vehicle control. The treated cancer cells including their controls were examined under an Axiovert 25 inverted light microscope (Carl Zeiss, Göttingen, Germany) with Axio Vision 3.1 software (Carl Zeiss, Göttingen, Germany) using a 100× magnification. In FIG. 19, the morphology of the different controls including Ligand-10 and complexes (10)-(12) are represented. To predict the targeting mechanisms of these compounds, the treated cells were compared to 100 μM Cisplatin (apoptotic control) and 25% H2O2 (necrotic control).

[2] = system: SNO-oesophageal cancer cells; experiment: Flow cytometric analysis (Annexin-V FITC / PI) of apoptosis and/or necrosis in SNO-oesophageal cancer cells; format: cell-based; details: 14 μM, 24 hours
Experimental: To determine if either apoptosis or necrosis occurred, the cells were double labelled with Annexin-V FITC and Propidium Iodide (PI) by means of an Annexin-V FITC assay kit (Serotec, UK). This was done according to manufacturer's instructions with a few adjustments. Briefly, the cells (±3×10^5 cells/ml) were washed twice with cold phosphate buffered saline (PBS), followed by the addition of 100 μl 1× binding buffer. Two and a half microliters of Annexin-V along with 5 μl PI were added in the dark and was incubated for 15 minutes at room temperature. After incubation, 400 μl 1× binding buffer was added and cells were analysed using the FACSAria flow cytometer (BD Biosciences, San Jose, Calif.) with FACSDiva software (BD Biosciences, San Jose, Calif.) 492 nm (excitation) and 520 nm for Annexin and 488 nm and 575 nm(emission) for PI.
The cell membrane contains a negatively charged phosphatidylserine (PS) on the inner leaflet and is exposed when apoptosis or necrosis takes place. Annexin-V interacts with PS in both apoptotic and necrotic cells, making these cellular deaths undistinguishable. This is overcome by using PI as an alternative label that interacts with the exposed DNA of necrotic cells only, leading to the fluorescent detection of both these labels. Pie charts (FIG. 9) were constructed for all the controls (including Ligand-1 to Ligand-5) and the different silver(I) thiocyanate phosphine complexes (1)-(5).
Pie charts representing the four different flow cytometric quadrants of Annexin-V and […] to determine the mode of cellular death induced in differentially treated SNO-oesophageal cells are represented in FIG. 9. An untreated control (A), apoptotic control (B) and necrotic control (C) were included. Cells were treated with 10 μM of the different ligands including the silver(I) thiocyanate phosphine complexes (1)-(5). An average percentage was calculated for all segments where the SEM is n=3 for all treatments except for 15% H2O2 (n=2). The four segments represent the following: White segment—negative for FITC and PI, Light grey segment—positive for FITC but negative for PI, Dark grey segment—positive for PI but negative for FITC and Black segment—positive for both FITC and PI. Cells undergoing early apoptosis are represented by the light grey segment, while those of late apoptosis and primary necrosis are represented by the black segment. Necrotic cells are represented by the dark grey segment and intact viable cells are shown by the white segment.
Approximately 3×10^5 cells were washed with ice cold phosphate buffered saline solution (PBS). The cells were double labeled using an Annexin-V FITC assay kit adjusting the protocol. A 1× binding buffer (100 μl) was used to fix the cells. Annexin-V (2.5 μl) and Propidium Iodide (PI—5 μl) labels were added respectively followed by a 15 minute incubation, at room temperature, in the dark. After the incubation period, 400 μl of the 1× binding buffer was added, where counting of the cellular events was made using an FACSAria flow cytometer (BD Biosciences, San Jose, Calif.) with FACSDiva software (BD Biosciences, San Jose, Calif.). This technique in particular identifies whether predicted apoptotic cell death (or necrosis) was induced by these complexes.
As observed in FIG. 14, dot blots represent the mode of cellular death induced in the SNO-oesophageal cancer cells after 24 hours of treatment. FIG. 14(a): 0.1% DMSO, FIG. 14(b): 100 μM CDDP, FIG. 14(c): 25% H2O2, FIG. 14(d-i): complexes (6)-(9). An average percentage was calculated for all quadrants where the SEM is n=2 for all treatments. The four quadrants represent the following: Quadrant Q3 is negative for FITC and PI, Quadrant Q4 is positive for FITC but negative for PI, Quadrant Q1 is positive for PI but negative for FITC and Quadrant Q2 is positive for both FITC and PI. Cells undergoing early apoptosis are more likely to be found in Quadrant Q4 while those of late apoptosis and primary necrosis will be found in Quadrant Q2. […]

[3] = system: SNO-oesophageal cancer cells; format: cell-based; details: for cancer cell death compared to the vehicle control: 14 μM, 24 hour treatment
[4] = system: MCF-7 breast cancer cells; experiment: AlamarBlue viability and proliferation assay of MCF-7 breast cancer cells; format: cell-based, human
Experimental: For the biological studies, MCF-7 breast cancer cells were obtained from an immortal cell line from human adenocarcinoma from (primary site) mammary gland and (metastatic site) pleural effusion (ATCC no HTB-22).
MCF-7 breast cancer cells were cultured in Dulbecco's modified Eagle's medium (DMEM), 13.53 g/L with sodium bicarbonate (NaHCO3), 3.7 g/L supplemented with 10% foetal bovine serum (FBS), 1% gentamycin and 5% Penicillin/Streptomycin/Fungizone in 75 cm^3 culture flasks. Cells were subcultured twice a week and incubated at 37° C. with 5% CO2 in a humidified atmosphere. Hanks balanced salt solution (HBSS), supplemented DMEM media and trypsin versene were warmed to 37° C. prior to subculturing. Cells were washed twice with 10 ml Hanks balanced salt solution for 1 minute and were then incubated for 4.5 to 5 minutes at 37° C. with 6 ml trypsin versene to remove the cells from the culture flask. To inactivate the trypsin versene, 10 ml supplemented DMEM was added and the cells were pelleted by centrifugation at 1028 g for 4 minutes with an Allegra™ 25R Centrifuge. The pellet was resuspended in 1 ml supplemented DMEM and 500 μl of the cell suspension was then added to 25 ml of supplemented DMEM media in 75 cm^3 culture flasks.
MCF-7 breast cancer cells, in terms of a first study, and SNO-oesophageal cancer cells, in terms of a second study, were treated with 10 μM silverthiocyanide complexes (1)-(5), as well as their ligands (Ligand-1 to Ligand-5) over a 24 hour incubation period. […] An untreated negative control (UT) was exposed to similar conditions as the treated cells and monitored during the experimental study.
The AlamarBlue® viability and proliferation assay of complexes (1)-(5) for the MCF-7 breast cancer cells is depicted in FIGS. 1A to 1F. The percentage viability of control samples determined by the AlamarBlue® viability and proliferation assay is depicted in FIG. 1A. […] A significant difference (P<0.001) between the control and the treated samples was calculated using Student's T-test and is indicated by an asterisk.
(§1) This Figure depicts the percentage viability of MCF-7 cells treated with various concentrations of complex (1) as determined by the AlamarBlue® viability and proliferation assay. […] The asterisk indicates a significant difference between a sample and the control (P<0.001) as calculated with Student's T-test.
as §1, with “FIG. 1C to FIG. 1F represent the dose dependant studies of complexes (2) to (5), respectively. In each of these Figures,” for “This Figure depicts”, “complexes (2) to (5) was” for “complex (1) as”, “T-test. […]” for “T-test.”

With `c1ccc(P(c2ccccc2)c2ccccc2)cc1` [Ligand-10, PPh3, reference compound] the “signs of apoptosis / cell death (morphology)” value ([1]; 14 μM) was “minimal cell death similar to apoptosis”, the “influence on cellular viability and PS externalisation, flow cytometry” value [2] was “did not influence” and the viability ([3]; 14 µM) was 99.03%.

In the case of `Cc1ccc([P+](c2ccc(C)cc2)(c2ccc(C)cc2)[Ag]2([P+](c3ccc(C)cc3)(c3ccc(C)cc3)c3ccc(C)cc3)[N+]#C[S][Ag]([P+](c3ccc(C)cc3)(c3ccc(C)cc3)c3ccc(C)cc3)([P+](c3ccc(C)cc3)(c3ccc(C)cc3)c3ccc(C)cc3)[N+]#C[S]2)cc1` [complex (2), [AgSCN{P(4-MeC6H4)3}2]2], the “decrease in viability and proliferation” value ([4]; 10 μM, 24 hours after treatment, compared to the untreated control) is reported as ~70% and the “necrotic cell death (morphology)” value ([1]; 10 μM) is reported as “Necrotic cell death was also observed”.

For `Clc1ccc([P+](c2ccc(Cl)cc2)(c2ccc(Cl)cc2)[Ag]2([P+](c3ccc(Cl)cc3)(c3ccc(Cl)cc3)c3ccc(Cl)cc3)[N+]#C[S][Ag]([P+](c3ccc(Cl)cc3)(c3ccc(Cl)cc3)c3ccc(Cl)cc3)([P+](c3ccc(Cl)cc3)(c3ccc(Cl)cc3)c3ccc(Cl)cc3)[N+]#C[S]2)cc1` [complex (4), [AgSCN{P(4-ClC6H4)3}2]2], the “cytotoxic activity (ranking)” value ([4]; MCF-7 cells) was “strongest”.

`[Cl][Ag]([PH](c1ccccc1)(c1ccccc1)c1ccccc1)([PH](c1ccccc1)(c1ccccc1)c1ccccc1)[PH](c1ccccc1)(c1ccccc1)c1ccccc1` [complex (10), AgCl(PPh3)3] was tested, and the “necrotic cell death (morphology)” value ([1]; 14 μM) was “Minimal necrotic cell death”, the “signs of apoptosis / cell death (morphology)” value ([1]; 14 μM) was “multiple signs of apoptosis” and the “cancer cell death compared to the vehicle control” value [3] was “significantly induced cancer cell death”.

In the case of `[Br][Ag]([PH](c1ccccc1)(c1ccccc1)c1ccccc1)([PH](c1ccccc1)(c1ccccc1)c1ccccc1)[PH](c1ccccc1)(c1ccccc1)c1ccccc1` [complex (11), AgBr(PPh3)3], the “necrotic cell death (morphology)” value ([1]; 14 μM) is reported as “Minimal necrotic cell death”, the “signs of apoptosis / cell death (morphology)” value ([1]; 14 μM) is reported as “multiple signs of apoptosis” and the “apoptotic cells (early and late stages), flow cytometry” value [2] is reported as 47.23%. The “necrotic cells positive for PI, flow cytometry” value [2] was 14.73% and the “cancer cell death compared to the vehicle control” value [3] was “significantly induced cancer cell death”.

In the case of AgCN(PPh3)3 [complex (12)], the “necrotic cell death (morphology)” value ([1]; 14 μM) is reported as “Minimal necrotic cell death”, the “signs of apoptosis / cell death (morphology)” value ([1]; 14 μM) is reported as “multiple signs of apoptosis” and the “cancer cell death compared to the vehicle control” value [3] is reported as “significantly induced cancer cell death”.
